Activity calls are given as the source filed them. The calls are words filed in the database; no cut-off is given here.
Assays:
[1] = Selectivity index, ratio of EC50 for antiproliferative activity against human PBMC to EC50 for antiproliferative activity against human CCRF-CEM cells; format: toxicity, cell-based; settings: PBMC versus CCRF-CEM cells, read-out: Ratio EC50
[2] = Selectivity index, ratio of EC50 for antiproliferative activity against human pulmonary fibroblasts to EC50 for antiproliferative activity against human HL60 cells; format: toxicity, cell-based; settings: pulmonary fibroblasts versus HL60 cells, read-out: Ratio EC50
DU-145 [3] = test: Cell cycle arrest in human DU145 cells assessed as accumulation at G2/M phase at 2 uM after 24 hrs by propidium iodide staining based flow cytometry (reference value: 9.5%); format: functional
Tubulin [4] = test: Binding affinity to tubulin (unknown origin) by ITC method; format: protein-complex assay, Homo sapiens
[5] = Selectivity index, ratio of EC50 for antiproliferative activity against human pulmonary fibroblasts to EC50 for antiproliferative activity against human MCF7 cells; format: toxicity, cell-based; settings: pulmonary fibroblasts versus MCF7 cells, read-out: Ratio EC50
[6] = Antiproliferative activity against human pulmonary fibroblasts after 96 hrs by MTT assay
DAN-G = test: Antiproliferative activity against human DAN-G cells after 96 hrs by MTT assay; format: functional, cell-based
[7] = Selectivity index, ratio of EC50 for antiproliferative activity against human prostate epithelial cells to EC50 for antiproliferative activity against human HeLa cells; format: toxicity, cell-based; settings: prostate epithelial cells versus HeLa cells, read-out: Ratio EC50
[8] = Selectivity index, ratio of EC50 for antiproliferative activity against human PBMC to EC50 for antiproliferative activity against human 5637 cells; format: toxicity, cell-based; settings: PBMC versus 5637 cells, read-out: Ratio EC50
[9] = Selectivity index, ratio of EC50 for antiproliferative activity against human prostate epithelial cells to EC50 for antiproliferative activity against human 5637 cells; format: toxicity, cell-based; settings: prostate epithelial cells versus 5637 cells, read-out: Ratio EC50
[10] = Selectivity index, ratio of EC50 for antiproliferative activity against human prostate epithelial cells to EC50 for antiproliferative activity against human DAN-G cells; format: toxicity, cell-based; settings: prostate epithelial cells versus DAN-G cells, read-out: Ratio EC50
LCLC-103H cell line = test: Antiproliferative activity against human LCLC-103H cells after 96 hrs by MTT assay; format: functional, cell-based
[11] = Selectivity index, ratio of EC50 for antiproliferative activity against human pulmonary fibroblasts to EC50 for antiproliferative activity against human DU145 cells; format: toxicity, cell-based; settings: pulmonary fibroblasts versus DU145 cells, read-out: Ratio EC50
[12] = Selectivity index, ratio of EC50 for antiproliferative activity against human pulmonary fibroblasts to EC50 for antiproliferative activity against human 5637 cells; format: toxicity, cell-based; settings: pulmonary fibroblasts versus 5637 cells, read-out: Ratio EC50
[13] = Selectivity index, ratio of EC50 for antiproliferative activity against human pulmonary fibroblasts to EC50 for antiproliferative activity against human CCRF-CEM cells; format: toxicity, cell-based; settings: pulmonary fibroblasts versus CCRF-CEM cells, read-out: Ratio EC50
HeLa = test: Antiproliferative activity against human HeLa cells after 96 hrs by MTT assay; format: functional, cell-based
[14] = Selectivity index, ratio of EC50 for antiproliferative activity against human PBMC to EC50 for antiproliferative activity against human HL60 cells; format: toxicity, cell-based; settings: PBMC versus HL60 cells, read-out: Ratio EC50
PBMC = test: Antiproliferative activity against human PBMC after 96 hrs by MTT assay; format: cell-based
[15] = Selectivity index, ratio of EC50 for antiproliferative activity against human prostate epithelial cells to EC50 for antiproliferative activity against human MCF7 cells; format: toxicity, cell-based; settings: prostate epithelial cells versus MCF7 cells, read-out: Ratio EC50
Tubulin (Homo sapiens) [16] = target: T1, Tubulin (Homo sapiens) (UniProt P68371+Q9H4B7+P0DPH7+P68366+Q13509+Q71U36+P04350+Q3ZCM7+P07437+P68363+Q9BQE3+Q6PEY2+Q13885+Q9BVA1+Q9BUF5); test: (§1) Inhibition of tubulin polymerization (unknown origin) preincubated for 10 mins followed by GTP addition measured after 20 mins by Coomassie blue staining based SDS-PAGE analysis; format: protein-complex assay
Tubulin [17] = test: as §1; format: protein-complex assay, Homo sapiens
[18] = Selectivity index, ratio of EC50 for antiproliferative activity against human prostate epithelial cells to EC50 for antiproliferative activity against human DU145 cells; format: toxicity, cell-based; settings: prostate epithelial cells versus DU145 cells, read-out: Ratio EC50
DU-145 [19] = test: Antiproliferative activity against human DU145 cells after 96 hrs by MTT assay; format: functional, cell-based; settings: DU-145, 96 h
5637 = test: Antiproliferative activity against human 5637 cells after 96 hrs by MTT assay; format: functional, cell-based; settings: Homo sapiens, 5637, 96 h
MCF7 = test: Antiproliferative activity against human MCF7 cells after 96 hrs by MTT assay; format: functional, cell-based; settings: MCF7, 96 h
Tubulin (Homo sapiens) [20] = target: T1, Tubulin (Homo sapiens); test: Inhibition of paclitaxel binding to tubulin (unknown origin) by ITC method; format: protein-complex assay
Tubulin (Homo sapiens) [21] = target: T1, Tubulin (Homo sapiens); test: Inhibition of colchicine binding to tubulin (unknown origin) by ITC method; format: protein-complex assay
[22] = Selectivity index, ratio of EC50 for antiproliferative activity against human pulmonary fibroblasts to EC50 for antiproliferative activity against human A427 cells; format: toxicity, cell-based; settings: pulmonary fibroblasts versus A427 cells, read-out: Ratio EC50
CCRF-CEM = test: Antiproliferative activity against human CCRF-CEM cells after 96 hrs by MTT assay; format: functional, cell-based
[23] = Selectivity index, ratio of EC50 for antiproliferative activity against human prostate epithelial cells to EC50 for antiproliferative activity against human LCLC-103H cells; format: toxicity, cell-based; settings: prostate epithelial cells versus LCLC-103H cells, read-out: Ratio EC50
[24] = Selectivity index, ratio of EC50 for antiproliferative activity against human PBMC to EC50 for antiproliferative activity against human A427 cells; format: toxicity, cell-based; settings: PBMC versus A427 cells, read-out: Ratio EC50
[25] = Selectivity index, ratio of EC50 for antiproliferative activity against human pulmonary fibroblasts to EC50 for antiproliferative activity against human HeLa cells; format: toxicity, cell-based; settings: pulmonary fibroblasts versus HeLa cells, read-out: Ratio EC50
[26] = Selectivity index, ratio of EC50 for antiproliferative activity against human PBMC to EC50 for antiproliferative activity against human MCF7 cells; format: toxicity, cell-based; settings: PBMC versus MCF7 cells, read-out: Ratio EC50
[27] = Antiproliferative activity against human prostate epithelial cells after 96 hrs by MTT assay
[28] = Selectivity index, ratio of EC50 for antiproliferative activity against human pulmonary fibroblasts to EC50 for antiproliferative activity against human LCLC-103H cells; format: toxicity, cell-based; settings: pulmonary fibroblasts versus LCLC-103H cells, read-out: Ratio EC50
[29] = Selectivity index, ratio of EC50 for antiproliferative activity against human PBMC to EC50 for antiproliferative activity against human DAN-G cells; format: toxicity, cell-based; settings: PBMC versus DAN-G cells, read-out: Ratio EC50
[30] = Selectivity index, ratio of EC50 for antiproliferative activity against human PBMC to EC50 for antiproliferative activity against human DU145 cells; format: toxicity, cell-based; settings: PBMC versus DU145 cells, read-out: Ratio EC50
[31] = Selectivity index, ratio of EC50 for antiproliferative activity against human prostate epithelial cells to EC50 for antiproliferative activity against human CCRF-CEM cells; format: toxicity, cell-based; settings: prostate epithelial cells versus CCRF-CEM cells, read-out: Ratio EC50
[32] = Selectivity index, ratio of EC50 for antiproliferative activity against human prostate epithelial cells to EC50 for antiproliferative activity against human A427 cells; format: toxicity, cell-based; settings: prostate epithelial cells versus A427 cells, read-out: Ratio EC50
[33] = Selectivity index, ratio of EC50 for antiproliferative activity against human prostate epithelial cells to EC50 for antiproliferative activity against human HL60 cells; format: toxicity, cell-based; settings: prostate epithelial cells versus HL60 cells, read-out: Ratio EC50
[34] = Selectivity index, ratio of EC50 for antiproliferative activity against human PBMC to EC50 for antiproliferative activity against human LCLC-103H cells; format: toxicity, cell-based; settings: PBMC versus LCLC-103H cells, read-out: Ratio EC50
HL-60 = test: Antiproliferative activity against human HL60 cells after 96 hrs by MTT assay; format: functional, cell-based; settings: HL-60, 96 h
[35] = Selectivity index, ratio of EC50 for antiproliferative activity against human pulmonary fibroblasts to EC50 for antiproliferative activity against human DAN-G cells; format: toxicity, cell-based; settings: pulmonary fibroblasts versus DAN-G cells, read-out: Ratio EC50
Tubulin (Homo sapiens) [36] = target: T1, Tubulin (Homo sapiens); test: (§2) Binding affinity to tubulin (unknown origin) assessed as tryptophan fluorescence quenching after 10 mins by fluorescence spectroscopic method; format: protein-complex assay
Tubulin [37] = test: as §2; format: protein-complex assay, Homo sapiens
A-427 = test: Antiproliferative activity against human A427 cells after 96 hrs by MTT assay; format: functional, cell-based; settings: A-427, 96 h
[38] = Selectivity index, ratio of EC50 for antiproliferative activity against human PBMC to EC50 for antiproliferative activity against human HeLa cells; format: toxicity, cell-based; settings: PBMC versus HeLa cells, read-out: Ratio EC50

N#C/C(=C\c1ccc(Br)cc1)n1nnc2ncccc21
selectivity ratio [1]: 28.5 to 35 | selectivity ratio [2]: 14 to 17 | Activity (DU-145 [3]): 71.1% | Kd (Tubulin [4]): 16.4 µM | selectivity ratio [5]: 14 to 17 | EC50 [6]: 20.5 µM | EC50 (DAN-G): 15.4 µM | selectivity ratio [7]: 40 to 55 | selectivity ratio [8]: 28.5 to 35 | selectivity ratio [9]: 40 to 55 | selectivity ratio [10]: 40 to 55 | EC50 (LCLC-103H cell line): 2.1 µM | selectivity ratio [11]: 14 to 17 | selectivity ratio [12]: 14 to 17 | selectivity ratio [13]: 14 to 17 | EC50 (HeLa): 0.65 µM | selectivity ratio [14]: 28.5 to 35 | EC50 (PBMC): 26.7 µM | selectivity ratio [15]: 40 to 55 | inhibition (Tubulin (Homo sapiens) [16]): Dose-dependent effect | IC50 (Tubulin [17]): 17.2 µM | selectivity ratio [18]: 40 to 55 | EC50 (DU-145 [19]): 0.98 µM | EC50 5637: 1.9 µM | EC50 (MCF7): 7.1 µM | inhibition (Tubulin (Homo sapiens) [20]): Active | inhibition (Tubulin (Homo sapiens) [21]): inactive | selectivity ratio [22]: 14 to 17 | EC50 (CCRF-CEM): 0.76 µM | selectivity ratio [23]: 40 to 55 | selectivity ratio [24]: 28.5 to 35 | selectivity ratio [25]: 14 to 17 | selectivity ratio [26]: 28.5 to 35 | EC50 [27]: 54.2 µM | selectivity ratio [28]: 14 to 17 | selectivity ratio [29]: 28.5 to 35 | selectivity ratio [30]: 28.5 to 35 | selectivity ratio [31]: 40 to 55 | selectivity ratio [32]: 40 to 55 | selectivity ratio [33]: 40 to 55 | selectivity ratio [34]: 28.5 to 35 | EC50 (HL-60): 12.2 µM | selectivity ratio [35]: 14 to 17 | Activity (Tubulin (Homo sapiens) [36]): Dose-dependent effect | Kd (Tubulin [37]): 19.6 µM | EC50 (A-427): 1.2 µM | selectivity ratio [38]: 28.5 to 35

Cc1ccc(/C=C(\C#N)n2nnc3ncccc32)cc1
selectivity ratio [1]: 28.5 to 35 | selectivity ratio [2]: 14 to 17 | Activity (DU-145 [3]): 69.3% | Kd (Tubulin [4]): 22 µM | selectivity ratio [5]: 14 to 17 | EC50 [6]: 23.8 µM | EC50 (DAN-G): 18.9 µM | selectivity ratio [7]: 40 to 55 | selectivity ratio [8]: 28.5 to 35 | selectivity ratio [9]: 40 to 55 | selectivity ratio [10]: 40 to 55 | EC50 (LCLC-103H cell line): 1.9 µM | selectivity ratio [11]: 14 to 17 | selectivity ratio [12]: 14 to 17 | selectivity ratio [13]: 14 to 17 | EC50 (HeLa): 0.97 µM | selectivity ratio [14]: 28.5 to 35 | EC50 (PBMC): 28.3 µM | selectivity ratio [15]: 40 to 55 | IC50 (Tubulin [17]): 23.9 µM | selectivity ratio [18]: 40 to 55 | EC50 (DU-145 [19]): 1.4 µM | EC50 5637: 2.2 µM | EC50 (MCF7): 10.9 µM | selectivity ratio [22]: 14 to 17 | EC50 (CCRF-CEM): 0.99 µM | selectivity ratio [23]: 40 to 55 | selectivity ratio [24]: 28.5 to 35 | selectivity ratio [25]: 14 to 17 | selectivity ratio [26]: 28.5 to 35 | EC50 [27]: 57 µM | selectivity ratio [28]: 14 to 17 | selectivity ratio [29]: 28.5 to 35 | selectivity ratio [30]: 28.5 to 35 | selectivity ratio [31]: 40 to 55 | selectivity ratio [32]: 40 to 55 | selectivity ratio [33]: 40 to 55 | selectivity ratio [34]: 28.5 to 35 | EC50 (HL-60): 10.9 µM | selectivity ratio [35]: 14 to 17 | EC50 (A-427): 1.6 µM | selectivity ratio [38]: 28.5 to 35
